The results in this text go back to US8106055B2, “Substituted amide compounds” (Gruenenthal GmbH, priority 2007, dated 2012).

Where two headings read alike, the source gives them in different places.

The target in assay [1] is T1, bradykinin 1 receptor (B1R) of the rat (Rattus norvegicus, UniProt P97583).
T1 construct: expressed in transfected cells; host or cells: CHO K1 cells
T1 sequence (P97583 1-337): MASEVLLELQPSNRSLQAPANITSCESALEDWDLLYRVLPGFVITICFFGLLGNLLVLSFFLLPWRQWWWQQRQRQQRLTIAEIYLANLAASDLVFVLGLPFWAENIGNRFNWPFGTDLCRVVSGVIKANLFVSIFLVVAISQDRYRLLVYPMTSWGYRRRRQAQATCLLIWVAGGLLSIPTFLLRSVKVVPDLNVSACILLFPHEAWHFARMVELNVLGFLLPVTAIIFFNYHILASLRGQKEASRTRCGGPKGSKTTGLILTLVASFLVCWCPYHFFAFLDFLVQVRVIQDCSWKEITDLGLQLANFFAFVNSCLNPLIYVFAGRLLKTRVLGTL
The assay can be described thus: Functional investigation on the rat bradykinin 1 receptor (B1R), Ca2+ FLIPR assay in CHO K1 rB1R cells. Type of assay: cell-based. The settings on record: test substance 10 μM, Ca2+ FLIPR, CHO K1 rB1R cells; for B1R Ant. r [10 μM] % Inhibition: B1R antagonism rat; for inhibition at 10 µM: CHO-K1, B1R antagonism rat, read-out: B1R Ant. r [10 μM] % Inhibition. The gist of the method: (§1)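 Peak Ca2+-dependent fluorescence in B1R-transfected CHO K1 cells measures antagonism of an EC80 agonist challenge given 10-20 min after compound. Agonist is Lys-Des-Arg9-bradykinin for human, Des-Arg9-bradykinin for rat receptor.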

Assay [2] deals with T2, human bradykinin 1 receptor (B1R) (Homo sapiens, UniProt P46663).
T2 construct: expressed in transfected cells; host or cells: CHO K1 cells
T2 sequence (P46663 1-353): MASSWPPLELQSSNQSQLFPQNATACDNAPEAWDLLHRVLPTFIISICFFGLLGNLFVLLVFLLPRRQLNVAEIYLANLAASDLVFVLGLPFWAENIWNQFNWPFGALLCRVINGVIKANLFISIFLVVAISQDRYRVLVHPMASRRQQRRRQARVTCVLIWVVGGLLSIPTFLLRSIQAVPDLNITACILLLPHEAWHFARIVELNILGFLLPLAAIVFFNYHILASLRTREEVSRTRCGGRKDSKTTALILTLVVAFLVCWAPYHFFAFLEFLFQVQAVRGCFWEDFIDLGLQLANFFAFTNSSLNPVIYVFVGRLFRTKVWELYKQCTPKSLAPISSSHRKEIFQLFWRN
Description: Functional investigation on the human bradykinin 1 receptor (B1R), Ca2+ FLIPR assay in CHO K1 hB1R cells. The settings on record: test substance 10 μM, Ca2+ FLIPR, CHO K1 hB1R cells; for B1R Ant. h [10 μM] % Inhibition: B1R antagonism human; for inhibition at 10 µM: CHO-K1, B1R antagonism human, read-out: B1R Ant. h [10 μM] % Inhibition. Type of assay: cell-based. The gist of the method:
as §1

A further assay deals with T3, human μ opiate receptor (Homo sapiens, UniProt P35372).
T3 construct: purchased PerkinElmer Life Sciences, Zaventem, Belgium RB-HOM; host or cells: CHO-K1 cells (membrane preparation)
T3 sequence (P35372 whole entry): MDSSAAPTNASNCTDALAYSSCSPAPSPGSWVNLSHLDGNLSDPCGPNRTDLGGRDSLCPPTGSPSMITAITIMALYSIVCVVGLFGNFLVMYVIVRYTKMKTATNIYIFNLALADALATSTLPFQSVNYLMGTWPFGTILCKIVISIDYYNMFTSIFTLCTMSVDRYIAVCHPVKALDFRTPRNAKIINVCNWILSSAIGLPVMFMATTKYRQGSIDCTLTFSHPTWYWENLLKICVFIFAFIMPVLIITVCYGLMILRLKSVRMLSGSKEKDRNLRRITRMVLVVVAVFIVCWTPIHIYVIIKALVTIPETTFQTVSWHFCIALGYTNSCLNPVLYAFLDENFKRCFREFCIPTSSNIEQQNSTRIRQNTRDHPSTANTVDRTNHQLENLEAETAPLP
Description: Affinity for the human μ opiate receptor ([3H]-naloxone displacement, CHO-K1 receptor membrane preparation, SPA). Type of assay: binding. The settings on record: 1.5 h, test concentration 1 μM. On the procedure: Binding data of the compounds on the μ opioid receptor and data on the inhibition of reuptake of serotonin (5-HT) are given in Table 1. The data for the μ receptor were measured at a test concentration of 1 μM, and those for the serotonin reuptake at 10 μM. The values are stated in % inhibition.
Investigation of the Activity of the Compounds of the Invention Method for Determining the Affinity for the Human μ Opiate Receptor
The receptor affinity for the human p opiate receptor is determined in a homogeneous set-up in microtitre plates. For this, dilution series of the substances to be tested are incubated with a receptor membrane preparation (15-40 μg of protein/250 μl of incubation batch) of CHO-K1 cells which express the human p opiate receptor (RB-HOM receptor membrane preparation from PerkinElmer Life Sciences, Zaventem, Belgium) in the presence of 1 nmol/l of the radioactive ligand [^3H]-naloxone (NET719, PerkinElmer Life Sciences, Zaventem, Belgium) and 1 mg of WGA-SPA-Beads (wheat germ agglutinin SPA beads from Amersham/Pharmacia, Freiburg, Germany) in a total volume of 250 μl for 90 minutes at room temperature. 50 mmol/l of Tris-HCl supplemented with 0.06% of bovine serum albumin is used as the incubation buffer. 100 μmol/l of naloxone are additionally added for determination of the non-specific binding. After the end of the ninety-minute incubation time, the microtitre plates are centrifuged for 20 minutes at 1,000 g and the radioactivity is measured in a β-counter (Microbeta-Trilux, PerkinElmer Wallac, Freiburg, Germany). The percentage displacement of the radioactive ligand from its binding to the human p opiate receptor is determined at a concentration of the test substances of 1 μmol/l and stated as the percentage inhibition of the specific binding. Starting from the percentage displacement by various concentrations of the test substances, IC50 inhibitory concentrations which cause a 50 percent displacement of the radioactive ligand are calculated. By conversion by means of the Cheng-Prusoff relationship, Ki values for the test substances are obtained.

The mark [3] stands for this setting: Table 3, to be read in the same way as Table 1, read-out: μ.

Regarding `COc1cc(C)c(S(=O)(=O)N(C)CCOCC(=O)NC2CCC(C(c3ccccc3)N(C)C)CC2)c(C)c1C` (stereo not drawn) [Example 597, N-[4-(dimethylaminophenylmethyl)-cyclohexyl]-2-{2-[(4-methoxy-2,3,6-trimethylbenzenesulfonyl)-methylamino]-ethoxy}-acetamide], the “B1R Ant. r [10 μM] % Inhibition” value in assay [1] is on record as −22%. In addition, the “B1R Ant. h [10 μM] % Inhibition” value in assay [2] was found to be 72%. In addition, the inhibition at 1 µM at human μ opiate receptor (Table 2, read-out: μ receptor) is 87%.

With `CN(C)C(Cc1ccccc1)C1CCC(NC(=O)COCCN(C)S(=O)(=O)c2c(Cl)cc(Cl)cc2Cl)CC1` (stereo not drawn) [Example 616, N-[4-(1-dimethylamino-2-phenylethyl)-cyclohexyl]-2-{2-[methyl-(2,4,6-trichlorobenzenesulfonyl)-amino]-ethoxy}-acetamide], the inhibition at 10 µM is 43% in assay [1] and 100% in assay [2]. Further, on human μ opiate receptor (Table 2, read-out: μ receptor), the inhibition at 1 µM amounted to 64%.

In the case of `COc1cc(C)c(S(=O)(=O)N(C)CCOCC(=O)NC2CCC(C(c3ccccc3)N3CCCCC3)CC2)c(C)c1C` (stereo not drawn) [Example 617, 2-{2-[(4-methoxy-2,3,6-trimethylbenzenesulfonyl)-methylamino]-ethoxy}-N-[4-(phenylpiperidin-1-yl-methyl)-cyclohexyl]-acetamide], the inhibition at 10 µM was 48% in assay [1] and 86% in assay [2]. Besides, the inhibition at 1 µM at human μ opiate receptor (Table 2, read-out: μ receptor) is 29%.

`COc1cc(C)c(S(=O)(=O)N(C)CCOCC(=O)NC2CCC(C(c3ccccc3)N3CCCC3)CC2)c(C)c1C` (stereo not drawn) [Example 618, 2-{2-[(4-methoxy-2,3,6-trimethylbenzenesulfonyl)-methylamino]-ethoxy}-N-[4-(phenylpyrrolidin-1-yl-methyl)-cyclohexyl]-acetamide]: the results for the inhibition at 10 µM in assay [1] and in assay [2] were 3% and 95%, respectively. Also, the inhibition at 1 µM on human μ opiate receptor (Table 2, read-out: μ receptor) turned out to be 43%.

Consider `COc1cc(C)c(S(=O)(=O)N(C)CCOCC(=O)NC2CCC(C(c3ccccc3)N3CCOCC3)CC2)c(C)c1C` (stereo not drawn) [Example 619, 2-{2-[(4-methoxy-2,3,6-trimethylbenzenesulfonyl)-methylamino]-ethoxy}-N-[4-(morpholin-4-yl-phenylmethyl)-cyclohexyl]-acetamide], for which the inhibition at 10 µM in assay [1] turned out to be 12%; in assay [2], 56%. Also, at human μ opiate receptor (Table 2, read-out: μ receptor), the inhibition at 1 µM was -11%.

Take `CN(C)C(c1ccccc1)C1CCC(NC(=O)CCOCN(C)S(=O)(=O)c2c(Cl)cc(Cl)cc2Cl)CC1` (stereo not drawn) [Example 620, N-[4-(dimethylaminophenylmethyl)-cyclohexyl]-3-{[methyl-(2,4,6-trichlorobenzenesulfonyl)-amino]-methoxy}-propionamide]: the inhibition at 10 µM amounted to 73% in assay [1] and 103% in assay [2]. Moreover, the inhibition at 1 µM on human μ opiate receptor (Table 2, read-out: μ receptor) was 92%.

For the compound `CN(C)C(c1ccccc1)C1CCC(CNC(=O)COC2CCCN(S(=O)(=O)c3c(Cl)cc(Cl)cc3Cl)C2)CC1` (stereo not drawn) [Example 621, N-[4-(dimethylaminophenylmethyl)-cyclohexylmethyl]-2-[1-(2,4,6-trichlorobenzenesulfonyl)-piperidin-3-yloxy]-acetamide], the inhibition at 10 µM in assay [1] is 0%; in assay [2], 88%. In addition, the inhibition at 1 µM at human μ opiate receptor (Table 2, read-out: μ receptor) was determined as 90%.

On to `CN(C)C(c1ccccc1)C1CCC(CNC(=O)COCC2CCCN2S(=O)(=O)c2c(Cl)cc(Cl)cc2Cl)CC1` (stereo not drawn) [Example 622, N-[4-(dimethylaminophenylmethyl)-cyclohexylmethyl]-2-[1-(2,4,6-trichlorobenzenesulfonyl)-pyrrolidin-2-ylmethoxy]-acetamide], for which the inhibition at 10 µM was found to be 68% in assay [1] and 106% in assay [2]. Also, the inhibition at 1 µM at human μ opiate receptor (Table 2, read-out: μ receptor) is 96%.

As for `COc1cc(C)c(S(=O)(=O)N(C)CCOCC(=O)NCC2CCC(C(c3ccccc3)N(C)C)CC2)c(C)c1C` (stereo not drawn) [Example 623, N-[4-(dimethylaminophenylmethyl)-cyclohexylmethyl]-2-{2-[(4-methoxy-2,3,6-trimethylbenzenesulfonyl)-methylamino]-ethoxy}-acetamide], in assay [1], the inhibition at 10 µM came out at 41%. Further, the “B1R Ant. h [10 μM] % Inhibition” value in assay [2] is on record as 84%. For the same compound, on human μ opiate receptor (Table 2, read-out: μ receptor), the inhibition at 1 µM is 93%.

For the compound `CN(C)C(c1ccccc1)C1CCC(CNC(=O)CCOCN(C)S(=O)(=O)c2c(Cl)cc(Cl)cc2Cl)CC1` (stereo not drawn) [Example 624, N-[4-(dimethylaminophenylmethyl)-cyclohexylmethyl]-3-{[methyl-(2,4,6-trichlorobenzenesulfonyl)-amino]-methoxy}-propionamide], the values for the inhibition at 10 µM in assay [1] and in assay [2] were 81% and 104%, respectively. Besides, on human μ opiate receptor (Table 2, read-out: μ receptor), the inhibition at 1 µM stood at 98%.

With `CN(CCOCC(=O)NC1CCC(C(c2ccccc2)N2CCCC2)CC1)S(=O)(=O)c1c(Cl)cc(Cl)cc1Cl` (stereo not drawn) [Example 625, N-(4-(phenyl(pyrrolidin-1-yl)methyl)cyclohexyl)-2-(2-(2,4,6-trichloro-N-methylphenylsulfonamido)ethoxy)acetamide], the “B1R Ant. r [10 μM] % Inhibition” value in assay [1] was 57%. For the same compound, the “B1R Ant. h [10 μM] % Inhibition” value in assay [2] is given as 100%. Besides, the inhibition at 1 µM at human μ opiate receptor (setting [3]) is 72%.

`CN(CCOCC(=O)NCC1CCC(C(c2ccccc2)N2CCCC2)CC1)S(=O)(=O)c1c(Cl)cc(Cl)cc1Cl` (stereo not drawn) [Example 626, N-((4-(phenyl(pyrrolidin-1-yl)methyl)cyclohexyl)methyl)-2-(2-(2,4,6-trichloro-N-methylphenylsulfonamido)ethoxy)acetamide]: the results for the inhibition at 10 µM in assay [1] and in assay [2] were 47% and 105%, respectively. For the same compound, the inhibition at 1 µM at human μ opiate receptor (setting [3]) turned out to be 71%.

For `CN(CCOCC(=O)NC1CCC(C(c2ccccc2)N2CCCC2)CC1)S(=O)(=O)c1ccc(Cl)cc1Cl` (stereo not drawn) [Example 627, 2-(2-(2,4-dichloro-N-methylphenylsulfonamido)ethoxy)-N-(4-(phenyl(pyrrolidin-1-yl)methyl)cyclohexyl)acetamide], the inhibition at 10 µM in assay [1] was 35%; in assay [2] it was 75%. Also, the inhibition at 1 µM on human μ opiate receptor (setting [3]) turned out to be 69%.

Regarding `COc1cc(C)c(S(=O)(=O)N(C)CCOCC(=O)NC2CCC(C(c3ccccc3)N3CCCC3)CC2)c(C)c1` (stereo not drawn) [Example 628, 2-(2-(4-methoxy-N,2,6-trimethylphenylsulfonamido)ethoxy)-N-(4-(phenyl(pyrrolidin-1-yl)methyl)cyclohexyl)acetamide], the inhibition at 10 µM in assay [1] came out at 89%; in assay [2] it was 105%. The inhibition at 1 µM on human μ opiate receptor (setting [3]) came out at 36%.

On to `COc1cc(C)c(S(=O)(=O)N2CCC(OCC(=O)NC3CCC(C(c4ccccc4)N4CCCC4)CC3)C2)c(C)c1` (stereo not drawn) [Example 629, 2-(1-(4-methoxy-2,6-dimethylphenylsulfonyl)pyrrolidin-3-yloxy)-N-(4-(phenyl(pyrrolidin-1-yl)methyl)cyclohexyl)acetamide], for which the values for the inhibition at 10 µM in assay [1] and in assay [2] were 67% and 96%, respectively. Also, on human μ opiate receptor (setting [3]), the inhibition at 1 µM was 37%.
